Results: ChEMBL document CHEMBL1201862, “PubChem BioAssay data set” (2004)
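Protocol summary: plate cells (96-well), add compound at 5 concentrations, incubate 48 h, interpolate endpoints linearly. Abbreviation: GI50, concentration required for 50% inhibition of growth.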 Activity calls are given as the source filed them. No stated cut-off is given here; in the data, active = GI50 up to about 1.1 µM and inactive = higher.

Experiments:
Assay in all cases: NCI anticancer screen, dose series, 48 h
[1] = test system: HCT-15
[2] = test system: TK-10
[3] = test system: KM12
[4] = test system: A498
[5] = test system: EKVX
[6] = test system: OVCAR-4
[7] = test system: SK-OV-3
[8] = test system: RPMI-8226
[9] = test system: U-251
[10] = test system: OVCAR-8
[11] = test system: HT-29
[12] = test system: LOX IMVI
[13] = test system: OVCAR-3
[14] = test system: A549
[15] = test system: CCRF-CEM
[16] = test system: SK-MEL-28
[17] = test system: UACC-257
[18] = test system: HL-60
[19] = test system: SK-MEL-5
[20] = test system: ACHN

| Compound | GI50 [1] | GI50 [2] | GI50 [3] | GI50 [4] | GI50 [5] | GI50 [6] | GI50 [7] | GI50 [8] | GI50 [9] | GI50 [10] | GI50 [11] | GI50 [12] | GI50 [13] | GI50 [14] | GI50 [15] | GI50 [16] | GI50 [17] | GI50 [18] | GI50 [19] | GI50 [20] |
| --- | --- | --- | --- | --- | --- | --- | --- | --- | --- | --- | --- | --- | --- | --- | --- | --- | --- | --- | --- | --- |
| CO[C@H]1C=C[C@@]23c4cc5c(cc4CO[C@]2(O)CN(C)[C@H]3C1)OCO5 | > 100 µM | > 100 µM (inactive) | > 100 µM (inactive) | > 100 µM (inactive) | > 100 µM (inactive) | > 100 µM (inactive) | > 100 µM (inactive) | > 100 µM (inactive) | > 100 µM (inactive) | > 100 µM (inactive) | > 100 µM (inactive) | > 100 µM (inactive) | > 100 µM (inactive) | > 100 µM (inactive) | > 100 µM (inactive) | > 100 µM (inactive) | > 100 µM (inactive) | > 100 µM (inactive) | > 100 µM (inactive) | > 100 µM (inactive) |
| O=C1CC(CC(OCc2ccccc2)C(COCc2ccccc2)OCc2ccccc2)CC(=O)N1 (centres undefined) | 31.9 µM |  | 37.9 µM (inactive) | 30.3 µM (inactive) | 19.7 µM (inactive) | 38.4 µM (inactive) |  | 34.5 µM (inactive) | 32.5 µM (inactive) | 31.9 µM (inactive) | 24.7 µM (inactive) | 34.3 µM (inactive) | 37.4 µM (inactive) | 27.4 µM (inactive) | 37.1 µM (inactive) | 63.4 µM (inactive) | 27.4 µM (inactive) | 28 µM (inactive) | 15.4 µM (inactive) | 30.3 µM (inactive) |
| CN(C)c1ccc(/C=C2/SC(=S)NC2=O)cc1 | > 100 µM | 21.2 µM (inactive) | 50.7 µM (inactive) | > 100 µM (inactive) | > 100 µM (inactive) | > 100 µM (inactive) | 29.1 µM (inactive) | > 100 µM (inactive) | 61.7 µM (inactive) | > 100 µM (inactive) | > 100 µM (inactive) | > 100 µM (inactive) | > 100 µM (inactive) | > 100 µM (inactive) | > 100 µM (inactive) | > 100 µM (inactive) | > 100 µM (inactive) | > 100 µM (inactive) | > 100 µM (inactive) | > 100 µM (inactive) |
| O=C(O)c1cc(-c2ccc3cc4c(cc3c2)OCO4)nc2ccccc12 | 12.3 µM | 18.2 µM (inactive) | > 100 µM (inactive) | 23.9 µM (inactive) | 14.4 µM (inactive) | > 100 µM (inactive) | 44.7 µM (inactive) | 45.9 µM (inactive) | 19.7 µM (inactive) | 37.1 µM (inactive) | 25.9 µM (inactive) | 29.3 µM (inactive) | 41.6 µM (inactive) | 21.1 µM (inactive) | 11.3 µM (inactive) | 47.5 µM (inactive) | 5.41 µM (inactive) | 16.5 µM (inactive) | 24 µM (inactive) | 37.8 µM (inactive) |
| CCC1(OC(=O)CN)C(=O)OCc2c1cc1n(c2=O)Cc2cc3ccccc3nc2-1 (centres undefined) | 0.149 µM | 0.516 µM (active) | 0.128 µM (active) | 0.0512 µM (active) | 0.598 µM (active) | 0.12 µM (active) | 0.0297 µM (active) | < 0.0132 µM (active) | 0.01 µM (active) |  |  | < 0.0102 µM (active) | 0.0944 µM (active) | 0.011 µM (active) | 0.01 µM (active) | 0.101 µM (active) | 0.0353 µM (active) | 0.00764 µM (active) |  | 0.01 µM (active) |
| CCCS(=O)(=O)O | > 100 µM | > 100 µM (inactive) | > 100 µM (inactive) | > 100 µM (inactive) | > 100 µM (inactive) | > 100 µM (inactive) | > 100 µM (inactive) | > 100 µM (inactive) | > 100 µM (inactive) | > 100 µM (inactive) | > 100 µM (inactive) | > 100 µM (inactive) | > 100 µM (inactive) | > 100 µM (inactive) | > 100 µM (inactive) | > 100 µM (inactive) | > 100 µM (inactive) | > 100 µM (inactive) | > 100 µM (inactive) | > 100 µM (inactive) |
| COc1ccc(C(CC(=O)c2ccc(O)cc2)C(C(=O)c2ccc(O)cc2)C(c2ccc(OC)cc2)C2C(=O)NC(=S)NC2=O)cc1 (centres undefined) | 21.2 µM | 29.3 µM (inactive) | 16.6 µM (inactive) | 38.9 µM (inactive) |  | 18.8 µM (inactive) |  | 22.6 µM (inactive) | 24.5 µM (inactive) | 24.8 µM (inactive) | 27 µM (inactive) | 17.9 µM (inactive) |  | 21.9 µM (inactive) | 11.1 µM (inactive) | 16.2 µM (inactive) | 17.5 µM (inactive) | 32.1 µM (inactive) | 21.5 µM (inactive) | 19.7 µM (inactive) |
| COc1ccc(C2N(NC(=O)c3ccncc3)C(=O)CS2(=O)=O)cc1F (centres undefined) | > 100 µM | > 100 µM (inactive) | > 100 µM (inactive) | > 100 µM (inactive) |  | > 100 µM (inactive) | > 100 µM (inactive) | > 100 µM (inactive) | > 100 µM (inactive) |  | > 100 µM (inactive) | 60.4 µM (inactive) |  | > 100 µM (inactive) | > 100 µM (inactive) | > 100 µM (inactive) | > 100 µM (inactive) | > 100 µM (inactive) | > 100 µM (inactive) | > 100 µM (inactive) |
| NC1CCCCC1 | 470 µM |  | 211 µM (inactive) | > 562 µM (inactive) | 489 µM (inactive) | 265 µM (inactive) |  | 369 µM (inactive) | 313 µM (inactive) | 397 µM (inactive) | 199 µM (inactive) | 506 µM (inactive) | 190 µM (inactive) | 194 µM (inactive) | 260 µM (inactive) | 318 µM (inactive) | > 562 µM (inactive) | 135 µM (inactive) | 283 µM (inactive) |  |
| CCN1CCC(O)(/C=C/c2ccc(C)cc2)C(C(=O)/C=C/c2ccc(C)cc2)C1 (centres undefined) | 4.06 µM | 5.45 µM (inactive) | 2.19 µM (inactive) | 10.3 µM (inactive) | 13.2 µM (inactive) | 9.82 µM (inactive) | 15.6 µM (inactive) | 2.77 µM (inactive) | 3.12 µM (inactive) | 2.81 µM (inactive) | 2.61 µM (inactive) | 1.31 µM (inactive) | 6.32 µM (inactive) | 8.24 µM (inactive) | 1.73 µM (inactive) | 5.86 µM (inactive) | 12.5 µM (inactive) | 1.79 µM (inactive) | 3.43 µM (inactive) | 3.7 µM (inactive) |
| C/C(=C1\N=C(c2ccccc2)OC1=O)c1ccccc1 | > 100 µM | > 100 µM (inactive) | > 100 µM (inactive) | > 100 µM (inactive) | > 100 µM (inactive) | > 100 µM (inactive) | > 100 µM (inactive) | > 100 µM (inactive) | > 100 µM (inactive) | 70.8 µM (inactive) | > 100 µM (inactive) | > 100 µM (inactive) | > 100 µM (inactive) | > 100 µM (inactive) | > 100 µM (inactive) | > 100 µM (inactive) | > 100 µM (inactive) | > 100 µM (inactive) | > 100 µM (inactive) | > 100 µM (inactive) |
| Cc1[nH]c2ncn(/N=C/c3ccccc3O)c(=N)c2c1Cc1ccccc1 | 46.3 µM | 56.9 µM (inactive) | 30.2 µM (inactive) | 36.5 µM (inactive) | 25 µM (inactive) | 63.5 µM (inactive) | > 100 µM (inactive) | 37.8 µM (inactive) | 19.6 µM (inactive) | > 100 µM (inactive) | 47.6 µM (inactive) | 59.2 µM (inactive) | 24.2 µM (inactive) | 39.4 µM (inactive) | 39.4 µM (inactive) | 42.3 µM (inactive) | 34.4 µM (inactive) | 23.6 µM (inactive) |  | 54.2 µM (inactive) |
| CC1[C@@H]2CC=C3C4CCC5Cc6nc7c(nc6C[C@@]5(C)C4CC(=O)[C@]32CO[C@@]1(O)C(O)CC(C)(C)O)CC1CCC2C3=C[C@H]4O[C@@]5(O[C@@](C)(CO)C[C@@H]5O)C(C)[C@@]4(O)[C@]3(C)[C@@H](O)CC2[C@]1(C)C7 (some centres undefined) | 0.015 µM |  | 0.0181 µM (active) | 0.00108 µM (active) | 0.000386 µM (active) | 0.431 µM (active) | 0.00184 µM (active) | < 0.00036 µM (active) | < 0.00036 µM (active) | 0.127 µM (active) | 0.00459 µM (active) | 0.0069 µM (active) | 0.491 µM (active) | 0.0031 µM (active) | 0.000753 µM (active) |  | 0.0491 µM (active) | < 0.00036 µM (active) | 0.0102 µM (active) |  |
| C=CCNC(=O)N(CCC)CCCCC(NC(C)=O)C(=O)NCc1ccccc1 (centres undefined) | > 100 µM | > 100 µM (inactive) | > 100 µM (inactive) | > 100 µM (inactive) | > 100 µM (inactive) | > 100 µM (inactive) | > 100 µM (inactive) | > 100 µM (inactive) | > 100 µM (inactive) | > 100 µM (inactive) | > 100 µM (inactive) | > 100 µM (inactive) | > 100 µM (inactive) | > 100 µM (inactive) | > 100 µM (inactive) | > 100 µM (inactive) | > 100 µM (inactive) | > 100 µM (inactive) | > 100 µM (inactive) | > 100 µM (inactive) |
| CC(=O)[C@H]1CCC2[C@@H]3CC=C4C(O)C(OS(=O)(=O)O)CC[C@]4(C)C3CC[C@@]21C (some centres undefined) | > 100 µM |  | > 100 µM (inactive) | > 100 µM (inactive) | > 100 µM (inactive) | > 100 µM (inactive) | > 100 µM (inactive) | > 100 µM (inactive) | > 100 µM (inactive) | > 100 µM (inactive) | > 100 µM (inactive) | > 100 µM (inactive) | > 100 µM (inactive) | > 100 µM (inactive) | > 100 µM (inactive) | > 100 µM (inactive) |  | > 31.6 µM (inactive) | > 100 µM (inactive) |  |
